Experimental data taken from patent US10620225B2, “Detection of polymyxins” (Randox Laboratories Limited, priority 2014, dated 2020).

Tests used:
Format in all cases: binding, sheep
Antibody RS2830 = assay: Competitive biochip immunoassay with Polymyxin B-KLH derived antibody RS2830 and Colistin-HRP tracer
Method: (§1) The process of developing an immunoassay is well known to the person skilled in the art. Briefly, for a competitive immunoassay in which the target analyte is a non-immunogenic molecule such as a hapten, a general immunoassay development process outlined. Following antibody production, a detecting agent is added to a sample containing the target analyte and the raised antibodies, and the detecting agent and analyte compete for binding to the antibodies. The process may comprise fixing said serum antibodies to a solid state device such as a polystyrene support or a ceramic chip. The antibodies can be polyclonal or monoclonal using standard techniques, but the current invention makes use of polyclonal antibodies. The signal emitted in the immunoassay is proportionate to the quantity of detecting agent bound to the antibodies which in turn is inversely proportionate to the analyte concentration. The signal can be detected or quantified by comparison with a calibrator.
(§2) 175 μl of assay diluent, then 25 μl of Polymyxin diluted in calibrator base was added to the appropriate wells. Biochips spotted with antibody of the invention were incubated for 30 min at 25° C. in a thermo-shaker at 370 rpm. 100 μl Tracer of the invention was added to the appropriate wells. Biochips were incubated for 60 min at 25° C. in a thermo-shaker at 370 rpm. Biochips were washed with TBST (2 quick washes followed by 4 washes at 2 min intervals). Biochips were developed with 250 μl signal: peroxide (1:1) for 2 min in the dark. Biochips were imaged on the Randox Investigator (2×60 sec images). All biochips were manually processed.

[1] = test system: Polymyxin B derived antibody; assay: Competitive biochip immunoassay, standard curves with Polymyxin B derived antibody and Colistin-based tracer; conditions: for CR (percentage cross-reactivity) / IC50 (standard concentration which produces 50% inhibition of maximal signal): Polymyxin B derived antibody, Colistin-based tracer
Method: as §1, §2

Antibody RS2801 = assay: Competitive biochip immunoassay with Polymyxin B-KLH derived antibody RS2801 and Colistin-HRP tracer
Method: as §1, §2

Antibody RS2790 = assay: Competitive biochip immunoassay with Polymyxin B-KLH derived antibody RS2790 and Colistin-HRP tracer
Method: as §1, §2

[2] = antibody 0.1 mg/ml, Colistin-HRP tracer dilution 1/500K
[3] = antibody 0.1 mg/ml, Colistin-HRP tracer dilution 1/1000K
[4] = antibody 0.1 mg/ml, tracer dilution 1/500K
[5] = antibody 0.1 mg/ml, tracer dilution 1/1000K
[6] = antibody 0.75 mg/ml, Colistin-HRP tracer dilution 1/500K
[7] = antibody 0.75 mg/ml, Colistin-HRP tracer dilution 1/1000K
[8] = antibody 0.75 mg/ml, tracer dilution 1/500K
[9] = antibody 0.75 mg/ml, tracer dilution 1/1000K
[10] = antibody 0.1 mg/ml, Colistin-HRP tracer dilution 1/50K
[11] = antibody 0.1 mg/ml, Colistin-HRP tracer dilution 1/100K
[12] = antibody 0.1 mg/ml, tracer dilution 1/50K
[13] = antibody 0.1 mg/ml, tracer dilution 1/100K
[14] = antibody 0.75 mg/ml, Colistin-HRP tracer dilution 1/50K
[15] = antibody 0.75 mg/ml, Colistin-HRP tracer dilution 1/100K
[16] = antibody 0.75 mg/ml, tracer dilution 1/50K
[17] = antibody 0.75 mg/ml, tracer dilution 1/100K

Relative Binding (IC50) (Antibody RS2830; [4]) [ng/mL]	Relative Binding (IC50) (Antibody RS2830; [5]) [ng/mL]	Relative Binding (IC50) (Antibody RS2830; [8]) [ng/mL]	Relative Binding (IC50) (Antibody RS2830; [9]) [ng/mL]	IC50 (standard concentration which produces 50% inhibition of maximal signal) [1] [ng/mL]	Relative Binding (IC50) (Antibody RS2801; [4]) [ng/mL]	Relative Binding (IC50) (Antibody RS2801; [5]) [ng/mL]	Relative Binding (IC50) (Antibody RS2801; [8]) [ng/mL]	Relative Binding (IC50) (Antibody RS2801; [9]) [ng/mL]	Substance	Relative % Cross-reactivity (Antibody RS2830; [2]) [%]	Relative % Cross-reactivity (Antibody RS2830; [3]) [%]	Relative % Cross-reactivity (Antibody RS2830; [6]) [%]	Relative % Cross-reactivity (Antibody RS2830; [7]) [%]	CR (percentage cross-reactivity) [1]	Relative % Cross-reactivity (Antibody RS2801; [2]) [%]	Relative % Cross-reactivity (Antibody RS2801; [3]) [%]	Relative % Cross-reactivity (Antibody RS2801; [6]) [%]	Relative % Cross-reactivity (Antibody RS2801; [7]) [%]	Relative % Cross-reactivity (Antibody RS2790; [10]) [%]	Relative % Cross-reactivity (Antibody RS2790; [11]) [%]	other results
2.54	3.62	2.16	2.47	1.191	0.47	0.78	0.24	0.22	Colistin	6	5	8	9	(CR = 80%)	20	15	67	62	5	23	B/Bo ([1]; standard conc 0.391 ng/ml): 71%; B/Bo ([1]; standard conc 0.781 ng/ml): 58%; B/Bo ([1]; standard conc 1.563 ng/ml): 44%; B/Bo ([1]; standard conc 3.125 ng/ml): 33%; B/Bo ([1]; standard conc 6.250 ng/ml): 17%; B/Bo ([1]; standard conc 12.500 ng/ml): 11%; B/Bo ([1]; standard conc 25.000 ng/ml): 9%; B/Bo ([1]; standard conc 50.000 ng/ml): 6%; Relative Binding (IC50) (Antibody RS2790; [12]): 3.02 ng/mL; Relative Binding (IC50) (Antibody RS2790; [13]): 1.60 ng/mL; Relative % Cross-reactivity (Antibody RS2790; [14]): 8%; Relative % Cross-reactivity (Antibody RS2790; [15]): 59%; Relative Binding (IC50) (Antibody RS2790; [16]): 1.72 ng/mL; Relative Binding (IC50) (Antibody RS2790; [17]): 1.01 ng/mL
0.15	0.17	0.17	0.22	0.931	0.09	0.12	0.16	0.13	Polymyxin B	100	100	100	100	(CR = 100%)	100	100	100	100	100	100	B/Bo ([1]; standard conc 0.078 ng/ml): 86%; B/Bo ([1]; standard conc 0.156 ng/ml): 78%; B/Bo ([1]; standard conc 0.313 ng/ml): 64%; B/Bo ([1]; standard conc 0.625 ng/ml): 56%; B/Bo ([1]; standard conc 1.250 ng/ml): 51%; B/Bo ([1]; standard conc 2.500 ng/ml): 38%; B/Bo ([1]; standard conc 5.000 ng/ml): 27%; B/Bo ([1]; standard conc 10.000 ng/ml): 16%; Relative Binding (IC50) (Antibody RS2790; [12]): 0.14 ng/mL; Relative Binding (IC50) (Antibody RS2790; [13]): 0.37 ng/mL; Relative % Cross-reactivity (Antibody RS2790; [14]): 100%; Relative % Cross-reactivity (Antibody RS2790; [15]): 100%; Relative Binding (IC50) (Antibody RS2790; [16]): 0.14 ng/mL; Relative Binding (IC50) (Antibody RS2790; [17]): 0.59 ng/mL
